Here are results for six compounds from publication PMC3534870 (Bioorganic & medicinal chemistry letters, 2012).

The target of one series is T1, RORα (Homo sapiens, UniProt P35398).
T1 sequence (P35398 272-510 limits assumed): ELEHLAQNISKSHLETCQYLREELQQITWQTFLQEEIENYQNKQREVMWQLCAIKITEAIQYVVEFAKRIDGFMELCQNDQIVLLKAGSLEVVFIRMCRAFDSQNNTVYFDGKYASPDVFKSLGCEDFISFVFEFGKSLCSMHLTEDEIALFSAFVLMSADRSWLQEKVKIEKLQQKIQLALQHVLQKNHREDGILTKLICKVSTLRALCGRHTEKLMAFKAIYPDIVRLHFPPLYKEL
Briefly: Gal4 DBD-NR LBD cotransfection assay, RORα. It counts as cell-based. The settings on record: data not shown.

The next series concerns the target T2, LXRα (Homo sapiens, UniProt Q13133).
T2 sequence (Q13133 209-447 limits assumed): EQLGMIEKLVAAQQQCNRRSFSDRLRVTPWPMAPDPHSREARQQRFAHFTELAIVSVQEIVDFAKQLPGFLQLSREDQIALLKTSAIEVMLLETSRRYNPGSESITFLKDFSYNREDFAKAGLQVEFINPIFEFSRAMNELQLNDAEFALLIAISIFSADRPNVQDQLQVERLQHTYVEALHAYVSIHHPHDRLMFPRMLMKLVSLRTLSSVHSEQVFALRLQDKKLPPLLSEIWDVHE
The series can be described thus: Gal4 DBD-NR LBD cotransfection assay, LXRα. It counts as cell-based. The conditions noted are these: data not shown.

Another series has as its target T3, FXR (Homo sapiens, UniProt Q96RI1).
T3 sequence (Q96RI1 262-486 limits assumed): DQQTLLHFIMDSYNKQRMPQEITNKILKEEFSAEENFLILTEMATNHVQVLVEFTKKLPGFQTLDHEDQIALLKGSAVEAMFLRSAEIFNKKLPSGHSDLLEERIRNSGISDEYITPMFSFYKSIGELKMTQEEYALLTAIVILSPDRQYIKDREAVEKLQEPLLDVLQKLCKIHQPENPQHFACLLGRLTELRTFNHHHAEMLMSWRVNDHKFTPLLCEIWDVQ
The series can be described thus: Gal4 DBD-NR LBD cotransfection assay, FXR. It counts as cell-based. The conditions noted are these: data not shown.

A short description of a further series: Solubility. The conditions noted are these: 20hr. It counts as physicochemical.
Another series addresses p450 2C9 (Homo sapiens, UniProt P11712). Briefly: p450 inhibition 2C9. The series is classed as in vitro ADME. The conditions noted are these: 10 µM drug.
The target in the next series is p450 3A4 (Homo sapiens, UniProt P08684). The series can be described thus: p450 inhibition 3A4. The series is classed as in vitro ADME. The settings on record: 10 µM drug.
A short description of series [1]: CNS exposure: plasma and brain levels in mice. The settings on record: t = 6h.
The next series has as its target T4, GST-RORγ (Homo sapiens, UniProt P51449).
T4 sequence (P51449 269-508 limits assumed): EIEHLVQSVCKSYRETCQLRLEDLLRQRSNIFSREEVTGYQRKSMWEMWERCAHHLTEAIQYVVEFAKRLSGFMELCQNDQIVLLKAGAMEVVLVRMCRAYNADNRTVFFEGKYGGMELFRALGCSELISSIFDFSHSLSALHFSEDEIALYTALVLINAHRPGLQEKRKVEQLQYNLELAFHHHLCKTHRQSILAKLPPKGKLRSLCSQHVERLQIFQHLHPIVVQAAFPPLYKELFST
Briefly: Radioligand binding. The settings on record: versus 6p.

Sequence of p450 3A4 (P08684 whole entry): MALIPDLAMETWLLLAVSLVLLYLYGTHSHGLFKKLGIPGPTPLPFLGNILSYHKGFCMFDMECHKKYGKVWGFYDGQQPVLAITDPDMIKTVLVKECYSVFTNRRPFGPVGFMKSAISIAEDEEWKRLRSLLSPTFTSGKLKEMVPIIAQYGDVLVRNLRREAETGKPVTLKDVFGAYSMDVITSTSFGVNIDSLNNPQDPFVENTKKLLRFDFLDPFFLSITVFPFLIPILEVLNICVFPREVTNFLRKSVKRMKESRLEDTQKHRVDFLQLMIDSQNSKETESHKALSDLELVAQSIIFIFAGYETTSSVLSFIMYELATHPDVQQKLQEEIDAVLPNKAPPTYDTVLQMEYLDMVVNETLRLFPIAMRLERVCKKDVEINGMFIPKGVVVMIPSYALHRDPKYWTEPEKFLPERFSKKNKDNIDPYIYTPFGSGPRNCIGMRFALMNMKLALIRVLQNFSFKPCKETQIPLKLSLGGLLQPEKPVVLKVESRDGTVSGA
Sequence of p450 2C9 (P11712 whole entry): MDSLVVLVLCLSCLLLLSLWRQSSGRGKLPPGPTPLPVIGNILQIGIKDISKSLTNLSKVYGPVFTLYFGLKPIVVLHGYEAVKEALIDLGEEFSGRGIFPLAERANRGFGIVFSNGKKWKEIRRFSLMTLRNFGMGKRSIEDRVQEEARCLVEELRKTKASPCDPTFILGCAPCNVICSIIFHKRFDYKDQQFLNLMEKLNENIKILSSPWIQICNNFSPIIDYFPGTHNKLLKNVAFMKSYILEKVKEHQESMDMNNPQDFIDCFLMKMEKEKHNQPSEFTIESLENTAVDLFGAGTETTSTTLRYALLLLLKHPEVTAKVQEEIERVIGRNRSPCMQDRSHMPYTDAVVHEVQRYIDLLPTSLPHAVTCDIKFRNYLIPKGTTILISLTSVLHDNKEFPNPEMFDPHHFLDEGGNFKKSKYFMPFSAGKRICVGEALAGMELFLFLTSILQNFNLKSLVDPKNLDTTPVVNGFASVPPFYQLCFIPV

Consider `COc1cc(O)c(C(CC(=O)N2CC(C)CC(C)C2)c2ccc3c(c2)OCO3)c(OC)c1` (centres unmarked) [Compound 1], for which the “activity on RORα” value at RORα is “did not show any activity”. In addition, the “activity on LXRα” value at LXRα is given as “did not show any activity”. Besides, the “activity on FXR” value at FXR is on record as “did not show any activity”. For the same compound, the “Solubility pH 7.4” value in the series “Solubility” (100 µM solution shaken in PBS pH 7.4, room temperature) is given as “low to modest”. In “Solubility” (100 µM solution shaken in Sodium Citrate Buffer pH 5.0, room temperature), the “Solubility pH 5.0” value is on record as “low to modest”. On p450 2C9, the “p450 % inhibition 2C9” value was “high”. Besides, on p450 3A4, the “p450 % inhibition 3A4” value is on record as “high”. Further, the “[Plasma]” value in series [1] (10 mg/kg IP in 10:10:80 DMSO:Tween:water) is recorded as “limited”. In addition, in series [1] (10 mg/kg IP), the “b.p. (%) brain penetration” value is “good”.
As to `COc1ccc(C(CC(=O)NCc2ccccc2)c2c(O)cc(OC)cc2OC)cc1` (centres unmarked) [Compound 6k], on GST-RORγ, the “RORγ activity in words (binding assay)” value was “loss of activity”.
`COc1ccc(C(CC(=O)N2CCOCC2)c2c(O)cc(OC)cc2OC)cc1` (centres unmarked) [Compound 6l]: the “RORγ activity in words (binding assay)” value at GST-RORγ is on record as “loss of activity”.
Same read-out and setting: to `COc1ccc(C(CC(=O)NC2CCCC2)c2c(O)cc(OC)cc2OC)cc1` (centres unmarked) [Compound 6n] belongs “loss of activity”.
Consider `COc1ccc(C(CC(=O)N2CCCCC2)c2c(O)cc(OC)cc2OC)cc1` (centres unmarked) [Compound 6m], for which the “RORγ activity in words (binding assay)” value at GST-RORγ is recorded as “loss of activity”.
With `COc1ccc(C(CC(=O)N2CCCC2)c2c(O)cc(OC)cc2OC)cc1` (centres unmarked) [Compound 6o], at GST-RORγ, the “RORγ activity in words (binding assay)” value is given as “loss of activity”.
